In patent US4490370A, “Naphthylglycyl cephalosporin derivatives” (priority 1983, dated 1984):
In brackets after ≈: the same amount, converted by molar mass. Where a name gives a salt, the structure may show the parent alone. Read-outs that look alike come from different tables or passages of the source.

How the values were obtained:
Assay type in all cases: cell-based
[1] = tested on: Staph. epi; assay: Agar dilution MIC, Staph. epi; conditions: read-out: MIC
Text: (§1) The following Tables present typical minimum inhibitory concentrations (MIC's) in μg/ml for the compounds when evaluated against the indicated microorganisms.

[2] = tested on: Staph. aureus; assay: Agar dilution MIC, Staph. aureus; conditions: Staphylococcus aureus
Text: as §1

[3] = tested on: Strep. A; assay: Agar dilution MIC, Strep. A; conditions: Table I, strain C203; read-out: MIC
Text: (§2) A typical and preferred compound provided by this invention is 7-(2-naphthylglycylamido)-3-methyl-3-cephem-4-carboxylic acid, the compound of Example 3. The antibacterial activity of this compound and several others of the invention has been determined in standard in vitro agar dilution assays against a variety of gram positive microorganisms. The following Tables present typical minimum inhibitory concentrations (MIC's) in μg/ml for the compounds when evaluated against the indicated microorganisms. MIC's for several known compounds are also presented for comparison.

[4] = tested on: Strep. PN; assay: Agar dilution MIC, Strep. PN; conditions: Table I, strain PARK; read-out: MIC
Text: as §1

[5] = tested on: H. influ.; assay: Agar dilution MIC, H. influenza; conditions: read-out: MIC
Text: as §1

[6] = tested on: Klebsiella; assay: Agar dilution MIC, Klebsiella; conditions: Klebsiella; Table I, strain X26; read-out: MIC
Text: as §2

[7] = Table II expanded spectrum, strain EPI1
[8] = Table I, strain V41, read-out: MIC
[9] = Table I, strain X1.1, read-out: MIC
[10] = Table I, strain X400, read-out: MIC
[11] = Table II, strain S224, read-out: MIC
[12] = Table II, strain S225, read-out: MIC
[13] = Table II, strain S226, read-out: MIC
[14] = Table II, strain S227, read-out: MIC
[15] = Table II, strain S228, read-out: MIC
[16] = Table II, strain S229, read-out: MIC
[17] = Table II, strain S230, read-out: MIC
[18] = Table II, strain S231, read-out: MIC
[19] = Table II, strain S234, read-out: MIC
[20] = Table II, strain S237, read-out: MIC
[21] = Table II, strain S238, read-out: MIC
[22] = Table II, strain S239, read-out: MIC

Structure (SMILES)	MIC ([1]; Table I, strain 222) [µg/mL]	MIC ([1]; Table I, strain EPI1) [µg/mL]	MIC [1, 7] [µg/mL]	MIC ([1]; Table II, strain 269) [µg/mL]	MIC ([1]; Table II, strain 270) [µg/mL]	MIC ([1]; Table II, strain 285) [µg/mL]	MIC ([1]; Table II, strain 286) [µg/mL]	MIC [2, 8] [µg/mL]	MIC [2, 11] [µg/mL]	MIC [2, 12] [µg/mL]	MIC [2, 13] [µg/mL]	MIC [2, 14] [µg/mL]	MIC [2, 15] [µg/mL]	MIC [2, 16] [µg/mL]	MIC [2, 17] [µg/mL]	MIC [2, 18] [µg/mL]	MIC [2, 19] [µg/mL]	MIC [2, 20] [µg/mL]	MIC [2, 21] [µg/mL]	MIC [2, 22] [µg/mL]	other results
CC1=C(C(=O)O)N2C(=O)C(NC(=O)[C@H](N)c3ccc4cc(Cl)ccc4c3)C2SC1 (stereo partly drawn) [Example 7, D-7-(6-chloronaphth-2-ylglycylamido)-3-methyl-3-cephem-4-carboxylic acid]	0.5 (≈ 1.16 µM)	4 (≈ 9.26 µM)	8 (≈ 18.5 µM)	4 (≈ 9.26 µM)	4 (≈ 9.26 µM)	2 (≈ 4.63 µM)	1 (≈ 2.32 µM)	8 (≈ 18.5 µM)	0.5 (≈ 1.16 µM)	0.5 (≈ 1.16 µM)	1 (≈ 2.32 µM)	0.5 (≈ 1.16 µM)	0.5 (≈ 1.16 µM)	1 (≈ 2.32 µM)	0.5 (≈ 1.16 µM)	0.25 (≈ 0.579 µM)	1 (≈ 2.32 µM)	0.5 (≈ 1.16 µM)	1 (≈ 2.32 µM)	1 (≈ 2.32 µM)	MIC [2, 9]: 0.25 µg/mL (≈ 0.579 µM); MIC [2, 10]: 64 µg/mL (≈ 148 µM); MIC [3]: 0.06 µg/mL (≈ 0.139 µM); MIC [4]: 0.25 µg/mL (≈ 0.579 µM); MIC ([5]; Table I, strain BRUN): 32 µg/mL (≈ 74.1 µM); MIC ([5]; Table II, strain 76): 16 µg/mL (≈ 37 µM); MIC ([5]; Table II, strain 1930): 16 µg/mL (≈ 37 µM); MIC ([5]; Table II, strain C.L.): 32 µg/mL (≈ 74.1 µM); MIC ([5]; Table II, strain HESS): 32 µg/mL (≈ 74.1 µM); MIC ([5]; Table II, strain M366): > 64 µg/mL; MIC ([5]; Table II, strain R465): 32 µg/mL (≈ 74.1 µM); MIC ([5]; Table II, strain STEL): > 64 µg/mL; MIC [6]: 8 µg/mL (≈ 18.5 µM)
COCC1=C(C(=O)O)N2C(=O)C(NC(=O)[C@H](N)c3ccc4ccccc4c3)C2SC1 (stereo partly shown) [Example 8, 7-(2-Naphthylglycylamido)-3-methoxymethyl-3-cephem-4-carboxylic acid]			4 (≈ 9.36 µM)	2 (≈ 4.68 µM)	2 (≈ 4.68 µM)	1 (≈ 2.34 µM)	0.5 (≈ 1.17 µM)		0.5 (≈ 1.17 µM)	0.5 (≈ 1.17 µM)	1 (≈ 2.34 µM)	0.5 (≈ 1.17 µM)	0.5 (≈ 1.17 µM)	1 (≈ 2.34 µM)	0.5 (≈ 1.17 µM)	0.5 (≈ 1.17 µM)	1 (≈ 2.34 µM)	0.5 (≈ 1.17 µM)	1 (≈ 2.34 µM)	1 (≈ 2.34 µM)	MIC ([1]; Table II, strain 219): 0.5 µg/mL (≈ 1.17 µM); MIC ([5]; Table II, strain 76): 8 µg/mL (≈ 18.7 µM); MIC ([5]; Table II, strain 105): 8 µg/mL (≈ 18.7 µM); MIC ([5]; Table II, strain 158): 8 µg/mL (≈ 18.7 µM); MIC ([5]; Table II, strain 164): 8 µg/mL (≈ 18.7 µM); MIC ([5]; Table II, strain 169): 8 µg/mL (≈ 18.7 µM); MIC ([5]; Table II, strain 171): 8 µg/mL (≈ 18.7 µM); MIC ([5]; Table II, strain 312): 8 µg/mL (≈ 18.7 µM); MIC ([5]; Table II, strain 1930): 16 µg/mL (≈ 37.4 µM); MIC ([5]; Table II, strain 4842): 8 µg/mL (≈ 18.7 µM); MIC ([5]; Table II, strain C.L.): 8 µg/mL (≈ 18.7 µM); MIC ([5]; Table II, strain HESS): 8 µg/mL (≈ 18.7 µM); MIC ([5]; Table II, strain M366): > 64 µg/mL; MIC ([5]; Table II, strain R465): 16 µg/mL (≈ 37.4 µM); MIC ([5]; Table II, strain STEL): > 64 µg/mL
COc1ccc2cc([C@@H](N)C(=O)NC3C(=O)N4C(C(=O)O)=C(C)CSC34)ccc2c1 (stereo partly drawn) [Example 10, D-7-(6-Methoxy-2-naphthyl)glycylamido-3-methyl-3-cephem-4-carboxylic acid]	1 (≈ 2.34 µM)	4 (≈ 9.36 µM)	4 (≈ 9.36 µM)	2 (≈ 4.68 µM)	4 (≈ 9.36 µM)	2 (≈ 4.68 µM)	0.5 (≈ 1.17 µM)	16 (≈ 37.4 µM)	0.5 (≈ 1.17 µM)	0.5 (≈ 1.17 µM)	1 (≈ 2.34 µM)	1 (≈ 2.34 µM)	0.5 (≈ 1.17 µM)	1 (≈ 2.34 µM)	0.5 (≈ 1.17 µM)	0.25 (≈ 0.585 µM)	1 (≈ 2.34 µM)	1 (≈ 2.34 µM)	1 (≈ 2.34 µM)	1 (≈ 2.34 µM)	MIC ([1]; Table II, strain 219): 5 µg/mL (≈ 11.7 µM); MIC ([2]; Table I, strain S13E): 16 µg/mL (≈ 37.4 µM); MIC [2, 9]: 0.25 µg/mL (≈ 0.585 µM); MIC [2, 10]: 64 µg/mL (≈ 150 µM); MIC [3]: 0.125 µg/mL (≈ 0.292 µM); MIC [4]: 0.125 µg/mL (≈ 0.292 µM); MIC ([5]; Table I, strain BRUN): 16 µg/mL (≈ 37.4 µM); MIC ([5]; Table II, strain 1930): 8 µg/mL (≈ 18.7 µM); MIC ([5]; Table II, strain C.L.): 8 µg/mL (≈ 18.7 µM); MIC ([5]; Table II, strain HESS): 8 µg/mL (≈ 18.7 µM); MIC ([5]; Table II, strain M366): 16 µg/mL (≈ 37.4 µM); MIC ([5]; Table II, strain R465): 16 µg/mL (≈ 37.4 µM); MIC ([5]; Table II, strain STEL): 16 µg/mL (≈ 37.4 µM); MIC [6]: 4 µg/mL (≈ 9.36 µM)
CC1=C(C(=O)O)N2C(=O)C(NC(=O)[C@H](N)c3ccc4cc(O)ccc4c3)C2SC1 (stereo partly drawn) [Example 11, D-7-(6-hydroxy-2-naphthylglycyl-amido)-3-methyl-3-cephem-4-carboxylic acid]	1 (≈ 2.42 µM)	4 (≈ 9.67 µM)	4 (≈ 9.67 µM)	2 (≈ 4.84 µM)	4 (≈ 9.67 µM)	2 (≈ 4.84 µM)	1 (≈ 2.42 µM)	8 (≈ 19.3 µM)	0.5 (≈ 1.21 µM)	0.5 (≈ 1.21 µM)	1 (≈ 2.42 µM)	0.5 (≈ 1.21 µM)	0.5 (≈ 1.21 µM)	1 (≈ 2.42 µM)	0.5 (≈ 1.21 µM)	0.5 (≈ 1.21 µM)	1 (≈ 2.42 µM)	1 (≈ 2.42 µM)	1 (≈ 2.42 µM)	1 (≈ 2.42 µM)	MIC ([1]; Table II, strain 219): 0.5 µg/mL (≈ 1.21 µM); MIC [2, 9]: 0.5 µg/mL (≈ 1.21 µM); MIC [2, 10]: 32 µg/mL (≈ 77.4 µM); MIC [3]: 0.125 µg/mL (≈ 0.302 µM); MIC [4]: 0.25 µg/mL (≈ 0.605 µM); MIC ([5]; Table I, strain BRUN): 8 µg/mL (≈ 19.3 µM); MIC ([5]; Table II, strain M366): > 64 µg/mL; MIC ([5]; Table II, strain R465): 16 µg/mL (≈ 38.7 µM); MIC ([5]; Table II, strain STEL): > 64 µg/mL; MIC [6]: 4 µg/mL (≈ 9.67 µM)
N[C@@H](C(=O)NC1C(=O)N2C(C(=O)O)=CCSC12)c1ccc2ccccc2c1 (stereo partly drawn) [Example 12, D-7-(2-Naphthylglycylamido)-3-cephem-4-carboxylic acid trifluoroacetate]	4	32						64													MIC [2]: 4 µg/mL; MIC ([2]; Table I, strain S13E): 64 µg/mL; MIC [3]: 0.5 µg/mL; MIC [4]: 1 µg/mL; MIC ([5]; Table I, strain 251): 16 µg/mL; MIC ([5]; Table I, strain BRUN): 64 µg/mL; MIC [6]: 16 µg/mL
